For 41 compounds, IC50 results are on record in US11046662B2, “2-aryl-4-hydroxy-1,3-thiazole derivatives useful as TRPM8-inhibitors in treatment of neuralgia, pain, COPD and asthma” (DOMPÉ FARMACEUTICI S.P.A., priority 2014, dated 2021).

This test has as its target human TRPM8 (Homo sapiens (Human), UniProt Q7Z2W7). Description: HTS cellular-based calcium assay for human TRPM8 antagonists (FLIPR TETRA). As to conditions: HEK293/hTRPM8 cells, agonist Cooling Agent 10 at EC80, Ca2+ fluorescence.

Sequence of human TRPM8 (Q7Z2W7 whole entry): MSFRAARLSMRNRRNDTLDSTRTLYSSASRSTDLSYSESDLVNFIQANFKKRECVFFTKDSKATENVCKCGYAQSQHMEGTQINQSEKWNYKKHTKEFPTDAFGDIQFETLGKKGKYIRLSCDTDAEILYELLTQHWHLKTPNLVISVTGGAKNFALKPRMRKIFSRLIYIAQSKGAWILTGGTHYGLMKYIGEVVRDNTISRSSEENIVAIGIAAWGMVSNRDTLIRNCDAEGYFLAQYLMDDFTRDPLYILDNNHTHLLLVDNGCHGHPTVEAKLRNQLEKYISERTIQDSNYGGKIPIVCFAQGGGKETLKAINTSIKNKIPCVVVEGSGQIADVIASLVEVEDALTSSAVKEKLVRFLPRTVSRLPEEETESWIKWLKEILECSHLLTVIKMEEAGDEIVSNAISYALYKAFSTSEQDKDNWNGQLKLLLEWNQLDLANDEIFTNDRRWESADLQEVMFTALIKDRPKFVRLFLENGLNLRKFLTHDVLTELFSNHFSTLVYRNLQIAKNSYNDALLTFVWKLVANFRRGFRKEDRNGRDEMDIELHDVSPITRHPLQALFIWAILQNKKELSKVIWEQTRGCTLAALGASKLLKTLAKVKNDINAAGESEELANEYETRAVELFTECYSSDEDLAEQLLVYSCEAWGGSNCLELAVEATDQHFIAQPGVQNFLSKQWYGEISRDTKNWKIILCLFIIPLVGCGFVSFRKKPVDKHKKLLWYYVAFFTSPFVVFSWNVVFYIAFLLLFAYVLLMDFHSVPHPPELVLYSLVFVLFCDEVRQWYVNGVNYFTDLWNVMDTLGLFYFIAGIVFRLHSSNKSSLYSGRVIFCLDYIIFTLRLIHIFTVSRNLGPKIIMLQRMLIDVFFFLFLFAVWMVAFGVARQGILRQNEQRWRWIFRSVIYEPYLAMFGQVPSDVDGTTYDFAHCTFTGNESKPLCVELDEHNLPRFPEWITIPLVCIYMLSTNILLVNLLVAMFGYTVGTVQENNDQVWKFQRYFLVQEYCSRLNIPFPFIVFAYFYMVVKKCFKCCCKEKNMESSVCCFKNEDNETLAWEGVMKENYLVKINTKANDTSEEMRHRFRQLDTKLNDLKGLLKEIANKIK

As usually defined, the IC50 is the point on the concentration scale where inhibition reaches its midpoint. As for `CC(=O)c1sc(-c2cccc(F)c2)nc1O` [Compound 4, 1-(2-(3-fluorophenyl)-4-hydroxythiazol-5-yl)ethanone], the IC50 turned out to be 0.958 µM. With `CCC(=O)c1sc(-c2cccn2C)nc1O` [Compound 17, 1-[4-hydroxy-2-(1-methyl-1H-pyrrol-2-yl)-1,3-thiazol-5-yl]propan-1-one], the IC50 is 0.323 µM. The figure for `CC(C)CC(=O)c1sc(-c2cccc(F)c2)nc1O` [Compound 38, 1-[2-(3-fluorophenyl)-4-hydroxy-1,3-thiazol-5-yl]-3-methylbutan-1-one] is 0.331 µM. The figure for `CCC(=O)c1sc(-c2cccc(N)c2)nc1O` [Compound 32, 1-[2-(3-aminophenyl)-4-hydroxy-1,3-thiazol-5-yl]propan-1-one] is 0.45 µM; for `CC(C)C(=O)c1sc(-c2cccc(F)c2)nc1O` [Compound 5, 1-[2-(3-fluorophenyl)-4-hydroxy-1,3-thiazol-5-yl]-2-methylpropan-1-one] it is 0.299 µM. As to `CCC(=N)c1sc(-c2cccc(F)c2)nc1O` [Compound 43, 2-(3-fluorophenyl)-5-propanimidoyl-1,3-thiazol-4-ol], the IC50 came to 1.21 µM. Take `CCC(=O)c1sc(-c2cnn(C)c2)nc1O` [Compound 20, 1-[4-hydroxy-2-(1-methyl-1H-pyrazol-4-yl)-1,3-thiazol-5-yl]propan-1-one]: the IC50 amounted to 0.089 µM.

Turning to `CCC(=O)c1sc(-c2ccno2)nc1O` [Compound 24, 1-[4-hydroxy-2-(1,2-oxazol-5-yl)-1,3-thiazol-5-yl]propan-1-one], the IC50 worked out at 0.123 µM.

As for `CCCC(=O)c1sc(-c2cccs2)nc1O` [Compound 21, 1-[4-hydroxy-2-(thiophen-2-yl)-1,3-thiazol-5-yl]butan-1-one], the 50% inhibitory concentration (IC50) turned out to be 0.064 µM. The figure for `CCC(=O)c1sc(-c2cccnc2)nc1O` [Compound 25, 1-[4-hydroxy-2-(pyridin-3-yl)-1,3-thiazol-5-yl]propan-1-one] is 0.356 µM; for `CON(C)C(=O)c1sc(-c2ccccc2Br)nc1O` [Compound 10, 2-(2-bromophenyl)-4-hydroxy-N-methoxy-N-methyl-1,3-thiazole-5-carboxamide] it is 0.435 µM; for `CCC(=O)c1sc(-c2cccs2)nc1O` [Compound 7, 1-[4-hydroxy-2-(thiophen-2-yl)-1,3-thiazol-5-yl]propan-1-one] it is 0.596 µM. On to `CCC(=O)c1sc(-c2ccccc2Br)nc1O` [Compound 11, 1-[2-(2-bromophenyl)-4-hydroxy-1,3-thiazol-5-yl]propan-1-one], for which the IC50 came to 0.912 µM. The figure for `CON(C)C(=S)c1sc(-c2cccc(F)c2)nc1O` [Compound 41, 2-(3-fluorophenyl)-4-hydroxy-N-methoxy-N-methyl-1,3-thiazole-5-carbothioamide] is 0.388 µM; for `CCC(=O)c1sc(-c2ncon2)nc1O` [Compound 23, 1-[4-hydroxy-2-(1,2,4-oxadiazol-3-yl)-1,3-thiazol-5-yl]propan-1-one] it is 0.099 µM; for `CC/C(=N\O)c1sc(-c2cccc(F)c2)nc1O` [Compound 44, 2-(3-fluorophenyl)-5-[(1E)—N-hydroxypropanimidoyl]-1,3-thiazol-4-ol] it is 1.36 µM. On to `CCC(=O)c1sc(-c2cccc(Br)c2)nc1O` [Compound 14, 1-[2-(3-bromophenyl)-4-hydroxy-1,3-thiazol-5-yl]propan-1-one], for which the half-inhibitory concentration (IC50) was 1.73 µM. For `CCC(=O)c1sc(-c2ccc[nH]2)nc1O` [Compound 16, 1-[4-hydroxy-2-(1H-pyrrol-2-yl)-1,3-thiazol-5-yl]propan-1-one], the IC50 is 0.123 µM. As for `CCC(=O)c1sc(-c2cncn2C)nc1O` [Compound 18, 1-[4-hydroxy-2-(1-methyl-1H-imidazol-5-yl)-1,3-thiazol-5-yl]propan-1-one], the figure is 0.112 µM. Regarding `CCC(=O)c1sc(-c2ccccc2O)nc1O` [Compound 13, 1-[2-(2-hydroxyphenyl)-4-hydroxy-1,3-thiazol-5-yl]propan-1-one], the IC50 is 0.112 µM.

Turning to `CCC(=O)c1sc(-c2ccncc2)nc1O` [Compound 26, 1-[4-hydroxy-2-(pyridin-4-yl)-1,3-thiazol-5-yl]propan-1-one], the IC50 turned out to be 0.453 µM.

Turning to `CCC(=O)c1sc(-c2cnc[nH]2)nc1O` [Compound 19, 1-[4-hydroxy-2-(1H-imidazol-5-yl)-1,3-thiazol-5-yl]propan-1-one], the IC50 came out at 0.302 µM.

Take `CCC(=O)c1sc(-c2ccc(NC)cc2)nc1O` [Compound 35, 1-{4-hydroxy-2-[4-(methylamino)phenyl]-1,3-thiazol-5-yl}propan-1-one]: the IC50 is 0.789 µM. On to `CCC(=O)c1sc(-c2ccccc2C)nc1O` [Compound 9, 1-[4-hydroxy-2-(2-methylphenyl)-1,3-thiazol-5-yl]propan-1-one], for which the IC50 turned out to be 0.411 µM. On to `CCC(=S)c1sc(-c2cccc(F)c2)nc1O` [Compound 40, 1-[2-(3-fluorophenyl)-4-hydroxy-1,3-thiazol-5-yl]propane-1-thione], for which the IC50 stood at 0.236 µM. With `COCC(=O)c1sc(-c2cccc(F)c2)nc1O` [Compound 39, 1-[2-(3-fluorophenyl)-4-hydroxy-1,3-thiazol-5-yl]-2-methoxyethanone], the IC50 was 0.523 µM. As for `CON(C)C(=O)c1sc(-c2ccccc2C)nc1O` [Compound 8, 4-hydroxy-N-methoxy-N-methyl-2-(2-methylphenyl)-1,3-thiazole-5-carboxamide], the figure is 0.086 µM. The figure for `CCC(=O)c1sc(-c2cccc(O)c2)nc1O` [Compound 28, 1-[4-hydroxy-2-(3-hydroxyphenyl)-1,3-thiazol-5-yl]propan-1-one] is 0.023 µM; for `CCC(=O)c1sc(-c2cccc(NC)c2)nc1O` [Compound 34, 1-{4-hydroxy-2-[3-(methylamino)phenyl]-1,3-thiazol-5-yl}propan-1-one] it is 0.233 µM. For `CCC(=O)c1sc(-c2ccccn2)nc1O` [Compound 27, 1-[4-hydroxy-2-(pyridin-2-yl)-1,3-thiazol-5-yl]propan-1-one], the IC50 turned out to be 0.145 µM. The figure for `CCC(=O)c1sc(-c2cccc(C)c2)nc1O` [Compound 30, 1-[4-hydroxy-2-(3-methylphenyl)-1,3-thiazol-5-yl]propan-1-one] is 0.231 µM. As for `CCC(=O)c1sc(-c2cccc(F)c2)nc1O` [Compound 1, 1-[2-(3-fluorophenyl)-4-hydroxy-1,3-thiazol-5-yl]propan-1-one], the figure is 0.032 µM. As for `CCC(=O)c1sc(-c2ccc(C)cc2)nc1O` [Compound 31, 1-[4-hydroxy-2-(4-methylphenyl)-1,3-thiazol-5-yl]propan-1-one], the figure is 0.236 µM; as for `CCC(=O)c1sc(-c2ccc(N)cc2)nc1O` [Compound 33, 1-[2-(4-aminophenyl)-4-hydroxy-1,3-thiazol-5-yl]propan-1-one], 0.632 µM. `CON(C)C(=O)c1sc(-c2cccs2)nc1O` [Compound 6, 4-hydroxy-N-methoxy-N-methyl-2-(thiophen-2-yl)-1,3-thiazole-5-carboxamide]: the IC50 came out at 0.156 µM. As for `CCC(=O)c1sc(-c2ccc(F)cc2)nc1O` [Compound 36, 1-[2-(4-fluorophenyl)-4-hydroxy-1,3-thiazol-5-yl]propan-1-one], the figure is 0.05 µM; as for `CCC(=O)c1sc(-c2ccc(O)cc2)nc1O` [Compound 29, 1-[4-hydroxy-2-(4-hydroxyphenyl)-1,3-thiazol-5-yl]propan-1-one], 0.326 µM; as for `CC/C(=N\OC)c1sc(-c2cccc(F)c2)nc1O` [Compound 42, 2-(3-fluorophenyl)-5-[(1E)—N-methoxypropanimidoyl]-1,3-thiazol-4-ol], 0.986 µM.

As to `CC(C)CC(=O)c1sc(-c2cccs2)nc1O` [Compound 22, 1-[4-hydroxy-2-(thiophen-2-yl)-1,3-thiazol-5-yl]-3-methylbutan-1-one], the IC50 was found to be 0.085 µM. As for `CCC(=O)c1sc(-c2ccco2)nc1O` [Compound 15, 1-[2-(furan-2-yl)-4-hydroxy-1,3-thiazol-5-yl]propan-1-one], the figure is 0.236 µM. For `O=C(c1sc(-c2cccc(F)c2)nc1O)C1CC1` [Compound 45, cyclopropyl[2-(3-fluorophenyl)-4-hydroxy-1,3-thiazol-5-yl]methanone], the IC50 is 0.287 µM.
